Converted amounts (≈) assume the structure as drawn. Like-named read-outs stand apart in the source and are kept apart here.
Experiments:
[1] = biological target: T1, SpsB (Staphylococcus aureus signal peptidase) (Staphylococcus aureus, UniProt P0A070); test: cell-based; assay type: biochemical; settings: SpsB IC50, whole-cell S. aureus (USA300 background, overexpressing SpsB) as SpsB source; fluorogenic peptide substrate, kinetic read 30 min
T1 construct: This assay uses a suspension of Staphylococcus aureus cells as a source of SpsB instead of recombinant SpsB protein; endogenous in cells; host or cells: S. aureus, USA300 background, overexpressing SpsB (whole-cell suspension from frozen pellets)
T1 sequence (P0A070 whole entry): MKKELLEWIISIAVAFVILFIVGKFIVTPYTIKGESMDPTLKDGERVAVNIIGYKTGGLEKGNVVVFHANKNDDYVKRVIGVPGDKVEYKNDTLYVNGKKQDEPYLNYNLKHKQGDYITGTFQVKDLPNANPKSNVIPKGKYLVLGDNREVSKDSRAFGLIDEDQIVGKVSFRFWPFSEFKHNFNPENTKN
Method in brief: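 Cleavage of an internally quenched (Dabcyl)βAla-KPAKAAE(Edans) peptide, added as 20 μM solution mixed 1:1 with cells, was followed for 30 min at 340/490 nm. SpsB came from a suspension of SpsB-overexpressing USA300 S. aureus in Tween-80-containing PBS buffer. Slopes plotted against 3-fold compound dilutions gave IC50.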

[2] = test system: Methicillin Resistant Staphylococcus aureus strain USA 300, NRS384; test: Minimum inhibitory concentration, broth micro-dilution (CLSI), S. aureus; assay type: cell-based; settings: Staphylococcus aureus, MRSA / NRS 384 / USA300, 22 h, 35° C., 22 hours
Method in brief: (§1)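 Ten-point 2-fold series began at 4 μg/mL in protocol 2 and 0.5 μg/mL in protocol 3, in cation-adjusted MHB plus 0.002% Tween-80. Bacteria added to OD600 0.0005 final and incubated at 35° C for 22 hours per CLSI microdilution.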

[3] = test system: Escherichia coli MC4100 harboring the IMP4213 (E. coli IMP); test: microbe, parasite or virus in culture; assay type: cell-based; settings: Escherichia coli, 22 h, read-out: MIC (μg/mL) E. coli IMP, E. coli MC4100 IMP4213, increased outer-membrane permeability; 35° C., 22 hours
Method in brief: as §1

[4] = test system: Escherichia coli ATCC 25922; test: Minimum inhibitory concentration, broth micro-dilution (CLSI), E. coli; assay type: cell-based; settings: Escherichia coli, ATCC25922, 22 h, 35° C., 22 hours
[5] = MRSA USA 300 NRS384, read-out: MIC (μg/mL) S. aureus
[6] = E. coli ATCC 25922, read-out: MIC (μg/mL) E. coli
[7] = read-out: MIC (μg/mL) S. aureus, MRSA USA 300 NRS384
[8] = read-out: MIC (μg/mL) E. coli, E. coli ATCC 25922

CCCCCCCCCCCCCC(=O)N[C@@H](CCN)C(=O)N(C)[C@@H]1C(=O)N[C@@H](C)C(=O)N[C@H](C(=O)NCC#N)Cc2ccc(OCCO)c(c2)-c2cc1ccc2OCCN [Compound 325] was tested, and the IC50 [1] was 0.77 nM, the MIC [2, 5] was 0.13 µg/mL (≈ 0.153 µM) and the MIC [3] was less than 0.0039 µg/mL. For the same compound, the MIC [4, 6] was 0.5 µg/mL (≈ 0.589 µM).
Compound CCCCCCCCCCCCCC(=O)N[C@@H](CCN)C(=O)N(C)[C@@H]1C(=O)N[C@@H](C)C(=O)N[C@H](C(=O)NCC#N)Cc2ccc(OC)c(c2)-c2cc1ccc2OCCN [Compound 326] has an IC50 [1] of 0.98 nM, an MIC [2, 5] of 0.19 µg/mL (≈ 0.232 µM) and an MIC [3] of 0.016 µg/mL (≈ 0.0195 µM). For the same compound, the MIC [4, 6] was 1 µg/mL (≈ 1.22 µM).
Compound CCCCCCCCCCCCCC(=O)N[C@@H](CCN)C(=O)N(C)[C@@H]1C(=O)N[C@@H](C)C(=O)N[C@H](C(=O)NCC#N)Cc2ccc(OCCN)c(c2)-c2cc1ccc2OCCO [Compound 329] has an IC50 [1] of 0.71 nM, an MIC [2, 5] of 0.063 µg/mL (≈ 0.0742 µM) and an MIC [3] of 0.0078 µg/mL (≈ 0.00919 µM). For the same compound, the MIC [4, 6] was 0.5 µg/mL (≈ 0.589 µM).
With CCCCCCCCCCCCCC(=O)N[C@@H](CCN)C(=O)N(C)[C@@H]1C(=O)N[C@@H](C)C(=O)N[C@H](C(=O)NCC#N)Cc2ccc(OCCN)c(c2)-c2cc1ccc2OCC [Compound 330] the IC50 [1] was 1 nM, the MIC [2, 5] was 0.25 µg/mL (≈ 0.3 µM) and the MIC [3] was 0.063 µg/mL (≈ 0.0756 µM). For the same compound, the MIC [4, 6] was 1 µg/mL (≈ 1.2 µM).
CCCCc1ccc(-c2ccc(C(=O)N[C@@H](CCCCN)C(=O)N(C)[C@@H]3C(=O)N[C@@H](C)C(=O)N[C@H](C(=O)NCC#N)Cc4ccc(OCCN)c(c4)-c4cc3ccc4OCCN)cc2)cc1 [Compound 331] was tested, and the IC50 [1] was 0.34 nM, the MIC [2, 7] was 0.063 µg/mL (≈ 0.0698 µM) and the MIC [3] was 0.023 µg/mL (≈ 0.0255 µM). For the same compound, the MIC [4, 8] was 0.69 µg/mL (≈ 0.765 µM).
CCCCc1ccc(-c2ccc(C(=O)N[C@@H](CCCCN)C(=O)N(C)[C@@H]3C(=O)N[C@@H](C)C(=O)N[C@H](C(=O)N[C@@H](C)C#N)Cc4ccc(OCCN)c(c4)-c4cc3ccc4OCCN)cc2)cc1 [Compound 332] gave an IC50 [1] of 0.56 nM, an MIC [2, 5] of 0.13 µg/mL (≈ 0.142 µM) and an MIC [3] of less than 0.063 µg/mL. It also gave an MIC [4, 6] of 3 µg/mL (≈ 3.27 µM).
Compound CCCCCCCCCCCCCC(=O)N[C@@H](CCCCN)C(=O)N(C)[C@@H]1C(=O)N[C@@H](C)C(=O)N[C@H](C(=O)N[C@@H](C)C#N)Cc2ccc(OCCN)c(c2)-c2cc1ccc2OCCO [Compound 333] has an IC50 [1] of 0.8 nM, an MIC [2, 5] of less than 0.063 µg/mL and an MIC [3] of less than 0.063 µg/mL. For the same compound, the MIC [4, 6] was 1 µg/mL (≈ 1.12 µM).
Compound CCCCCCCCCCCCCC(=O)N[C@@H](CCCCN)C(=O)N(C)[C@@H]1C(=O)N[C@@H](C)C(=O)N[C@H](C(=O)NCC#N)Cc2ccc(OCCN)c(c2)-c2cc1ccc2OCCN [Compound 334] has an IC50 [1] of 1.3 nM, an MIC [2, 5] of less than 0.063 µg/mL and an MIC [3] of less than 0.063 µg/mL. The MIC [4, 6] was 0.5 µg/mL (≈ 0.571 µM).
For CCCCCCCCc1ccc(C(=O)N[C@@H](CCCN)C(=O)N(C)[C@@H]2C(=O)N[C@@H](C)C(=O)N[C@H](C(=O)NCC#N)Cc3ccc(OCCN)c(c3)-c3cc2ccc3OCCN)cc1 [Compound 335], the IC50 [1] was 0.56 nM, the MIC [2, 5] was 0.031 µg/mL (≈ 0.0357 µM) and the MIC [3] was 0.016 µg/mL (≈ 0.0184 µM). For the same compound, the MIC [4, 6] was 0.25 µg/mL (≈ 0.288 µM).
CCCCCCCCCCCCCC(=O)N[C@@H](CCCN)C(=O)N(C)[C@@H]1C(=O)N[C@@H](C)C(=O)N[C@H](C(=O)NCC#N)Cc2ccc(OCCN)c(c2)-c2cc1ccc2OCCN [Compound 336] gave an IC50 [1] of less than 0.5 nM, an MIC [2, 5] of 0.063 µg/mL (≈ 0.0731 µM) and an MIC [3] of 0.023 µg/mL (≈ 0.0267 µM). It also gave an MIC [4, 6] of 0.25 µg/mL (≈ 0.29 µM).
Compound CCCCCCCCCCCCCC(=O)N[C@@H](CCN)C(=O)N(C)[C@@H]1C(=O)N[C@@H](C)C(=O)N[C@H](C(=O)NCC#N)Cc2ccc(OCCN)c(c2)-c2cc1ccc2OCCN [Compound 337] has an IC50 [1] of less than 0.5 nM, an MIC [2, 5] of 0.031 µg/mL (≈ 0.0366 µM) and an MIC [3] of 0.016 µg/mL (≈ 0.0189 µM). For the same compound, the MIC [4, 6] was 0.25 µg/mL (≈ 0.295 µM).
Work on CCCCc1ccc(-c2ccc(C(=O)N[C@@H](CCN)C(=O)N(C)[C@@H]3C(=O)N[C@@H](C)C(=O)N[C@H](C(=O)NCC#N)Cc4ccc(OCCN)c(c4)-c4cc3ccc4OCCN)cc2)cc1 [Compound 338] yielded an IC50 [1] of less than 0.5 nM, an MIC [2, 7] of 0.063 µg/mL (≈ 0.0721 µM) and an MIC [3] of 0.023 µg/mL (≈ 0.0263 µM). The MIC [4, 8] was 0.19 µg/mL (≈ 0.217 µM).
CCCCCCCCc1ccc(C(=O)N[C@@H](CCN)C(=O)N(C)[C@@H]2C(=O)N[C@@H](C)C(=O)N[C@H](C(=O)NCC#N)Cc3ccc(OCCN)c(c3)-c3cc2ccc3OCCN)c(C)c1 [Compound 339] showed an IC50 [1] of less than 0.5 nM, an MIC [2, 5] of 0.047 µg/mL (≈ 0.0541 µM) and an MIC [3] of 0.018 µg/mL (≈ 0.0207 µM). The MIC [4, 6] was 0.13 µg/mL (≈ 0.15 µM).
CCCCc1ccc(-c2ccc(C(=O)N[C@@H](CN)C(=O)N(C)[C@@H]3C(=O)N[C@@H](C)C(=O)N[C@H](C(=O)NCC#N)Cc4ccc(OCCN)c(c4)-c4cc3ccc4OCCN)cc2)cc1 [Compound 341] was tested, and the IC50 [1] was 1.1 nM, the MIC [2, 5] was 0.13 µg/mL (≈ 0.151 µM) and the MIC [3] was 0.031 µg/mL (≈ 0.036 µM). It also gave an MIC [4, 6] of 0.5 µg/mL (≈ 0.581 µM).

From patent publication US20180327367A1, “MACROCYCLIC BROAD SPECTRUM ANTIBIOTICS” (priority 2015, published 2018)
